The text below walks through data of ChEMBL document CHEMBL3797136, “Insights into the structure-activity relationship of the anticancer compound ZJ-101: A critical role played by the cyclohexene ring” (Bioorg Med Chem Lett, 2016).

What all share (type): functional, cell-based
For one assay, the system named is RKO. Kind of assay: Antiproliferative activity against human RKO cells assessed as cell viability by Alamar Blue assay.
Assay [1] can be described thus: Antiproliferative activity against human SF295 cells assessed as cell viability by Alamar Blue assay. The conditions noted are these: SF-295. A general note: The colour change of resazurin is a common sign of viable cells or microbes.
The test system of a further assay is MDA-MB-231. Kind of assay: Antiproliferative activity against human MDA-MB-231 cells assessed as cell viability by Alamar Blue assay.
Assay [2] is described as follows: Antiproliferative activity against human […] assessed as cell viability by Alamar Blue assay.

Bounds are passed on as bounds.

For the compound `CC(=O)N[C@H](C)[C@@H](O)[C@@H](C)[C@@H]1OC(=O)/C=C/C=C(C)\C=C\[C@]2(C)CCC=C[C@@H]2/C=C(C)/C=C/[C@H]1C`, the IC50 was 154 nM in the assay with RKO, 66.1 nM in assay [1], 42.8 nM in the assay with MDA-MB-231 and 36.2 nM in assay [2].

With `CC(=O)N[C@H](C)[C@@H](O)[C@@H](C)[C@@H]1OC(=O)/C=C/C=C(C)\C=C\c2ccccc2/C=C(C)/C=C/[C@H]1C`, the IC50 in the assay on RKO was over 5000 nM; in assay [1], over 5000 nM; in the assay on MDA-MB-231 it was over 5000 nM; in assay [2], 2200 nM.

The IC50 is the concentration that inhibits the measured activity by half.
